Source: patent publication US9051351B2, “Hepatocyte growth factor mimics as therapeutic agents” (Washington State University, priority 2011, dated 2015)
“Also recorded” adds a separate entry of the source. Values belong to the compound of their own block, whether it stands above or below them. Where a SMILES comes first, the peptide text is derived from it. [ ]: non-standard residue; d: D form. dNle = CCCC[C@@H](N)C(=O)O; Ahx = NCCCCCC(=O)O

Key:
in vitro = conditions: male, rat, pH 7.38
MDCK cells [1] = test: Inhibition of HGF-dependent scattering in MDCK cells; assay type: cell-based, canine; conditions: HGF 20 ng/ml, 48 h
Description: (§1) MDCK cells were grown to 100% confluency on the coverslips in six-well plates and washed twice with PBS. The confluent coverslips were then aseptically transferred to new six well plates containing 900 μl serum free DMEM. Norleual, Hinge peptide, and/or HGF (20 ng/ml) were added to appropriate wells. Control wells received PBS vehicle. Plates were incubated at 37° C. with 5% CO2 for 48 hours. Media was removed and cells were fixed with methanol. Cells were stained with Diff-Quik Wright-Giemsa (Dade-Behring, Newark, Del.) and digital images were taken. Coverslips were removed with forceps and more digital images were captured. Pixel quantification of images was achieved using Image J and statistics were performed using Prism 5 and InStat v.3.05.
as §1, with “h.” for “hours.”, “Cells were stained with Diff-Quik Wright-Giemsa (Dade-Behring, Newark, Del.) and digital images were taken. Coverslips were removed with forceps and more digital images were captured.” left out, “v.3.05 (GraphPad; San Diego, Calif.).” for “v.3.05.”

human HGF = target: T1, human HGF (Homo sapiens, UniProt P14210); test: HGF dimerization (PAGE, silver staining); assay type: biochemical; conditions: analog 10^−10 M, heparin, 30 minute incubation
T1 construct: purchased R&D Systems (Minneapolis, Minn.)
Description: HGF dimerization was assessed using PAGE followed by silver staining (Kawas et al., 2011). Human HGF at a concentration of 0.08 ng/μl with or without 6-AH analogs was incubated with heparin at a final concentration of 5 μg/ml. Loading buffer was then added to each sample and the mixture separated by native PAGE using gradient Criterion XT precast gels (4-12% Bis-Tris; Biorad Laboratories, Hercules, Calif.). Next the gel was silver stained for the detection of the HGF monomers and dimers. Bands were quantitated from digital images using a UVP phosphoimager (Upland, Calif.).

MDCK cells [2] = test: HGF-dependent MDCK cell proliferation (MTT); assay type: cell-based, canine; conditions: analog 10^−10M, HGF 10 ng/ml, 4 days
Description: 5000 MDCK cells were seeded into the wells of a 96 well plates in 10% FBS DMEM. To induce cellular quiescence, the cells were serum deprived for 24 h prior to initiating the treatments. Following serum starvation, 10 ng/ml HGF alone and with various concentrations of 6-AH analogs or PBS vehicle were added to the media. The cells were allowed to grow under these conditions for 4 days with a daily addition of 6-AH analogs. On the fourth day, 1 mg/ml of […] (MTT, Sigma-Aldrich) prepared in PBS was added to the cells and incubated for 4 h. Dimethyl sulfoxide diluted in a 0.01M glycine buffer was added to solubilize the cell membranes and the absorbance of reduced MTT in the buffer was quantitated at 590 nm using a plate reader (Biotek Synergy 2, Winooski, Vt.). HGF-dependent proliferation was determined by subtracting the basal proliferation (in the absence of HGF) from total proliferation rates in groups containing HGF.

hippocampal neurons [3] = test: Dendritic spine counts (spinogenesis) in mRFP-β-actin transfected dissociated hippocampal neurons; assay type: cell-based, rat; conditions: HGF 10 ng/ml, Dihexa or Nle1-AngIV 10^−12 M
Description: Hippocampal neurons (2×10^5 cells per square cm) were cultured from P1 Sprague Dawley rats on plates coated with poly-L-lysine from Sigma (St. Louis, Mo.; molecular weight 300,000). […] Each experiment was repeated at least three times using independent culture preparations. […] Hippocampal neurons (2×10^5 cells per square centimeter) were cultured from P1-2 Sprague Dawley rats on plates coated with poly-L-lysine from Sigma (St. Louis, Mo.; molecular weight 300,000). Hippocampal neurons were maintained in Neurobasal A media from Invitrogen (Carlsbad, Calif.) supplemented with B27 from Invitrogen, 0.5 mM L-glutamine, and […] cytosine-D-arabinofuranoside from Sigma added at 2 days in vitro. Hippocampal neurons were then cultured a further 3-7 days, at which time they were either transfected or treated with various pharmacological reagents as described in the text or figure legends. Neurons were transfected with mRFP-β-actin on day in vitro 6 […] using LipofectAMINETM 2000 (Invitrogen) according to the manufacturer's protocol. […] On DIV7 the cells were treated with vehicle (H20) or peptides (as described in the text) added to media. […] Five 50 μm long segments of dendrite from at least 10 neurons per data point were analyzed for each data point reported. Each experiment was repeated at least three times using independent culture preparations. […] A target sequence for c-Met was designed using RNAi central design program (see the website located at […].edu/). The target sequence […] NO: 2) was inserted into pSUPER vector (Oligoengine, Seattle Wash.) which drives endogenous production of shRNA under the H1 promoter. The shRNA was transfected into cells using the lipofectamine method described above. Verification of receptor knockdown was done by creating a c-[…]-Myc tagged gene product using the Gateway cloning system (Invitrogen). The Met protein coding sequence was cloned from rat whole brain cDNA using primers obtained from Integrated DNA Technologies, Inc. The amplified product was gel purified and a band corresponding to 190 kDa band excised and cloned into a […] destination vector (Gateway). Hippocampal neurons (2×10^5 cells per square cm) were cultured from P1 Sprague Dawley rats on plates coated with poly-L-lysine from Sigma (St. Louis, Mo.; molecular weight […]).

hippocampal neurons [4] = test: Immunocytochemistry: percent correlation of spines to synaptic markers; assay type: cell-based, rat; conditions: HGF 10 ng/ml, 5 days
Description: (§2) Transfected neurons were treated, fixed and stained. Briefly, cells were permeablized with 0.1% Triton X-100 detergent (Bio-Rad; Hercules, Calif.) for 10 minutes. An 8% bovine serum albumin (Intergen Company; Burlington, Mass.) in PBS was used to prevent non-specific binding for one hour at R.T.; Primary antibody incubations were at a 1:2500 dilution (see below) in 1% BSA in PBS at 4° C. overnight. Secondary antibody, 1:3000 Alexafluor 488 goat-anti-mouse (Invitrogen: Carlsbad, Calif.) was applied for two hours at room temperature. Coverslips were mounted with ProLong Gold anti-fade reagent (Invitrogen; Carlsbad, Calif.) and all washes were done with PBS. Imaging and analysis were performed as described above. For presynaptic excitatory transmission the VGLUT1 (Synaptic Systems, Goettingen, Germany) marker (Balschun, Moechars et al.) was employed and for general presynaptic transmission synapsin1 (Synaptic Systems, Goettingen, Germany) (Ferreira and Rapoport 2002) was applied. A postsynaptic function was established by PSD-95 (Milipore, Billerica, Mass.) (El-Husseini, Schnell et al. 2000). In each instance the total number of spines was counted for the treatment groups, control, Nle1-AngIV and Dihexa, to ensure an active phenotype. The total number of actin enriched spines adjacent to VGLUT1 or Synapsin were counted and converted to a percentage as the percent correlation of treatment-induced spines to presynaptic markers is a strong indicator of ability to transmit excitatory signals.
as §2, with “fixed and stained as previously described in Chapter two. Briefly, cells” for “fixed and stained. Briefly, cells”, “enriched spines (red) adjacent to” for “enriched spines adjacent to”
Transfected neurons were treated and fixed as described above. Following fixation, cells were rinsed in PBS and permeabilized with 0.1% Triton® X-100 detergent (Bin-Rad; Hercules, Calif.), followed by two rinses in PBS and blocked with 8% bovine serum albumin (Intergen Company; Burlington, Mass.) in PBS for 1 h. […]

c-Met receptor = test: c-Met phosphorylation in acute adult hippocampal slices; assay type: cell-based, rat; conditions: 30 minutes
Text: Adult Sprague-Dawley rats (250 g+) obtained from Harlan Laboratories (Ca, USA) were anesthetized with isofluorane (Vet One™, MWI, Meridian, Id., USA) and decapitated. The brain was rapidly removed and placed into ice-chilled artificial cerebrospinal fluid (aCSF) for approximately 30 s. Both hemispheres were separated by a mid-saggital cut and both hippocampi removed. Slices were sectioned cross- and length-wise (400 μm) to ensure penetrability of the drug, using a Mcllwain tissue chopper (Brinkmann, Gomshall, UK) and transferred to a gassed (95% O2/5% CO2) incubation chamber containing aCSF for 90 minutes at room temperature. Slices were transferred to fresh tubes, aCSF was removed by careful suctioning and replaced with aCSF containing vehicle (aCSF+aCSF), 100 ng/ml with carrier free adult recombinant Hepatocyte Growth Factor (HGF) (R and D Systems, MN, USA) in aCSF, 10^−10 M Hinge (Harding lab), […], 10^−10 M Dihexa (Harding lab) in aCSF, 10^−12 M Dihexa in aCSF or 50 ng/ml HGF+10^−12 M Dihexa in aCSF for 30 minutes at 37° C. with gentle rocking. aCSF was removed and the slices were lysed using RIPA buffer (Upstate/Milipore, Billerica, Mass.) and inhibitor Cocktails I and II (Sigma, St. Louis, Mo.), sonicated on ice and clarified by centrifugation for 30 minutes, 13,000 rpm at 4° C. The supernatant was removed from the pellet and stored at −80° C. or processed immediately for gel electrophoresis.
Protein concentration of the samples was quantified using the BCA method (Pierce, Rockford, Ill.) following the manufacturers protocol. Samples were added to SDS-PAGE buffer and boiled for 10 min. before loading onto a 4-12% Bis-Tris pre-cast gel (Invitrogen, Carlsbad, Calif.) for electrophoresis. Proteins were transferred onto PVDF membranes (Bio Rad, Hercules, Calif.) and blocked with AquaBlock™ (New England Biolabs, Ipswich, Mass.) for 1 hour at room temperature (RT). Primary antibody incubation was done in AquaBlock™ with rabbit anti-Met and […] phospho-Met (Tyr1234/1235) (1:1000, Cell Signaling Technology, Danvers, Mass.) overnight at 4° C. Alternating washes were done with PBS and PBST. Secondary antibody (IRDye) (Rockland, Gilbertsville, Pa.) incubations were done in AquaBlock™ for one hour at RT. Blots were imaged using LI-COR Odyssey Infrared Imaging System (LI-COR Biosciences, Lincoln, Nebr.).

T1 sequence (P14210 32-728): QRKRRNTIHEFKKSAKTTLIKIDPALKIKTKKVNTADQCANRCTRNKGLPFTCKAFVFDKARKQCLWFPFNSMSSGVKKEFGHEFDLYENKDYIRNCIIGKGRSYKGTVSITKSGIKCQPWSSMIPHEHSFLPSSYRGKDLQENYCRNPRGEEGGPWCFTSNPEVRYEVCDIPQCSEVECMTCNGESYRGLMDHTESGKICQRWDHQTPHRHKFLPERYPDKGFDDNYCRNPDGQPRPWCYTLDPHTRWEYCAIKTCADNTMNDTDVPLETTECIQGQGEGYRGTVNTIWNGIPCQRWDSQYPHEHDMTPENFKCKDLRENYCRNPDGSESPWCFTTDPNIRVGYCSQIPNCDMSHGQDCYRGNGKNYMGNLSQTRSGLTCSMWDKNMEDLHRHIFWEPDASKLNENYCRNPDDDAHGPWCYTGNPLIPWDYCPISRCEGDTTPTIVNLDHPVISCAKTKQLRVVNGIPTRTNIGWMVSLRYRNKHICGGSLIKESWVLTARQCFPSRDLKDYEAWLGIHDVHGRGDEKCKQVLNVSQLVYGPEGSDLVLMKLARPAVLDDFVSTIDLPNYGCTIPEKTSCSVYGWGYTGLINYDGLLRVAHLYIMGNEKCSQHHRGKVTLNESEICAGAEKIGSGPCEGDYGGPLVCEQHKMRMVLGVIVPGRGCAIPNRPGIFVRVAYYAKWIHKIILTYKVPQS

microsomal CLint at 5 µM (in vitro; pooled liver microsomes): 137 µL/min/mg
Compound: CCOc1ccc2ccc(=O)oc2c1 [7-ethoxycoumarin, reference compound]

inhibition of HGF dimerization (human HGF): intermediate inhibition of dimerization
Compound: CCCC[C@@H](N)C(=O)N[C@@H](Cc1c[nH]c2ccccc12)C(=O)N[C@H](C(=O)NCCCCCC(N)=O)[C@@H](C)CC [D-Nle-Trp-Ile-NH—(CH2)5—CONH2] (H-[dNle]WI[Ahx]-NH2)
inhibition of HGF-dependent MDCK cell proliferation (MDCK cells [2]): showed inhibitory activity, albeit less than that observed with the most potent analogs
inhibition of HGF dimerization (human HGF; listed as Trp): statistically different than the HGF treated group

microsomal CLint at 5 µM (in vitro; microsomes): 60.2 µL/min/mg
Compound: CN1C(C(=O)Nc2ccccn2)=C(O)c2ccccc2S1(=O)=O [piroxicam, reference compound]

More lines, now with the values behind:

Compound: CCCC[C@@H](N)C(=O)N[C@@H](CCSC)C(=O)N[C@H](C(=O)NCCCCCC(N)=O)[C@@H](C)CC [D-Nle-Met-Ile-NH—(CH2)5—CONH2] (H-[dNle]MI[Ahx]-NH2)
inhibition of HGF-dependent MDCK cell scattering (MDCK cells [1]): The HGF and HGF+Met groups were not different
inhibition of HGF dimerization (human HGF): unable to block dimerization at the concentration tested

Compound: HGF: carrier free adult recombinant Hepatocyte Growth Factor (R and D Systems)
mean spine numbers per 50 μm dendrite length (hippocampal neurons [3]; neurons transfected with mRFP-β-actin alone, 48 hours): 20.6 spines per 50 μm dendrite leng
mean spine numbers per 50 μm dendrite length (hippocampal neurons [3]; neurons transfected with mRFP-β-actin and shMet (c-Met knock-down)): 12.4 spines per 50 μm dendrite leng
correlation between Synapsin and postsynaptic actin-enriched spines (hippocampal neurons [4]): 98%
c-Met phosphorylation vs vehicle (aCSF) (c-Met receptor; saturating doses: HGF 100 ng/ml, Dihexa 10^−10 M): increased c-Met phosphorylation; also recorded: effectively augment c-Met phosphorylation
c-Met phosphorylation vs vehicle (aCSF) (c-Met receptor; sub-threshold doses: HGF 50 ng/ml, Dihexa 10^−12 M): not statistically different from control treated slices; also recorded: did not significantly increase c-Met receptor phosphorylation
